Biological target: T1, DCTPP1 (Homo sapiens, UniProt Q9H773)
T1 sequence (Q9H773 1-170): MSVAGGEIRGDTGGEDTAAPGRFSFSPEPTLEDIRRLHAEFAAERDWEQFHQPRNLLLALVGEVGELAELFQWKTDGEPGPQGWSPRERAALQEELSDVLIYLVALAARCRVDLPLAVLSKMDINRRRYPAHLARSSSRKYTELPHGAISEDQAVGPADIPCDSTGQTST
Experiment: DCTPP1 inhibition assay (malachite green)
Assay type: biochemical
Details: 35 nM DCTPP1, 35 μM dCTP, 20 minutes at 22° C.; read-out: IC50
Description: DCTPP1 catalyzes the hydrolysis of dCTP to dCMP and PPi. By coupling the reaction to pyrophosphatase added in excess PPi is converted to Pi that can be detected by using the malachite green assay reagent. […] DCTPP1 diluted in assay buffer (100 mM Tris-acetate, 100 mM KCl, 10 mM magnesium acetate, 1 mM DTT and 0.005% Tween 20) fortified with E. coli pyrophosphatase (0.2 U/mL) is added to a final concentration of 35 nM. dCTP diluted in assay buffer is added to a final concentration of 35 μM. The reaction mixture is incubated with shaking for 20 minutes at 22° C. To 100 μl reaction mixture is added […] Malachite green assay reagent (0.095% Malachite green in 17% H2SO4, 1.5% Ammonium molybdate, 0.17% Tween 20) added followed by incubation with shaking for 15 minutes at 22° C. The absorbance of the assay plate is read at 630 nm using a SpectraMax plate reader (Molecular Devices).

| Compound | IC50 [nM] |
| --- | --- |
| 5,6-dichloro-2-methyl-4-nitro-1-(4-(trifluoro-l4-boranyl)benzyl)-1H-benzo[d]imidazole [Compound 2.2.48] | 39 |
| O=[N+]([O-])c1cccc2c1nc(C(F)(F)F)n2Cc1ccc(B(O)O)cc1 [Compound 2.2.8, (4-((4-nitro-2-(trifluoromethyl)-1H-benzo[d]imidazol-1-yl)methyl)phenyl)boronic acid] | 206 |
| Cc1nc2c([N+](=O)[O-])c(F)c(F)cc2n1Cc1ccccc1 [Compound 2.2.10, 1-benzyl-5,6-difluoro-2-methyl-4-nitro-1H-benzo[d]imidazole] | 410 |
| Cc1nc2c([N+](=O)[O-])c(Cl)c(Cl)cc2n1S(=O)(=O)c1ccccc1 [Compound 2.2.17, 5,6-dichloro-2-methyl-4-nitro-1-(phenylsulfonyl)-1H-benzo[d]imidazole] | 74 |
| COc1ccc(Cn2c(C)nc3c([N+](=O)[O-])c(Cl)c(Cl)cc32)cc1 [Compound 2.2.20, 5,6-dichloro-1-(4-methoxybenzyl)-2-methyl-4-nitro-1H-benzo[d]imidazole] | 41 |

Same assay, conditions: 35 nM DCTPP1, 35 μM dCTP, 20 minutes at 22° C.; read-out: IC50 (nM), class

| Compound | IC50 [nM] |
| --- | --- |
| 1-(4-methoxybenzyl)-4-nitro-1H-benzo[d]imidazole [Compound 2.2.62] | ≥ 1000 |
| 5,6-dichloro-2-methyl-4-nitro-1-(4-(trifluoro-l4-boranyl)benzyl)-1H-benzo[d]imidazole [Compound 2.2.48] | < 100 |
| COc1ccc(Cn2c(C)nc3c([N+](=O)[O-])cccc32)cc1 [Compound 2.2.1, 1-(4-methoxybenzyl)-2-methyl-4-nitro-1H-benzo[d]imidazole] | ≥ 1000 |
| COc1ccc(Cn2c(-c3ccccc3)nc3c([N+](=O)[O-])cccc32)cc1 [Compound 2.2.2, 1-(4-methoxybenzyl)-4-nitro-2-phenyl-1H-benzo[d]imidazole] | ≥ 1000 |
| COc1ccc(Cn2c(Cc3ccccc3)nc3c([N+](=O)[O-])cccc32)cc1 [Compound 2.2.3, 2-benzyl-1-(4-methoxybenzyl)-4-nitro-1H-benzo[d]imidazole] | ≥ 1000 |
| COc1ccc(Cn2c(C(F)(F)F)nc3c([N+](=O)[O-])cccc32)cc1 [Compound 2.2.4, 1-(4-methoxybenzyl)-4-nitro-2-(trifluoromethyl)-1H-benzo[d]imidazole] | ≥ 1000 |
| COc1ccc(Cn2c(OC)nc3c([N+](=O)[O-])cccc32)cc1 [Compound 2.2.5, 2-methoxy-1-(4-methoxybenzyl)-4-nitro-1H-benzo[d]imidazole] | ≥ 1000 |
| COCc1nc2c([N+](=O)[O-])cccc2n1Cc1ccc(OC)cc1 [Compound 2.2.6, 1-(4-methoxybenzyl)-2-(methoxymethyl)-4-nitro-1H-benzo[d]imidazole] | ≥ 1000 |
| COc1ccc(Cn2c(C(C)C)nc3c([N+](=O)[O-])cccc32)cc1 [Compound 2.2.7, 2-isopropyl-1-(4-methoxybenzyl)-4-nitro-1H-benzo[d]imidazole] | ≥ 1000 |
| O=[N+]([O-])c1cccc2c1nc(C(F)(F)F)n2Cc1ccc(B(O)O)cc1 [Compound 2.2.8, (4-((4-nitro-2-(trifluoromethyl)-1H-benzo[d]imidazol-1-yl)methyl)phenyl)boronic acid] | 100 to 500 |
| Cc1nc2c([N+](=O)[O-])c(F)c(F)cc2n1Cc1ccc(C#N)cc1 [Compound 2.2.11, 4-((5,6-difluoro-2-methyl-4-nitro-1H-benzo[d]imidazol-1-yl)methyl)benzonitrile] | ≥ 1000 |
| Cc1nc2c([N+](=O)[O-])c(F)c(F)cc2n1Cc1ccc(F)cc1 [Compound 2.2.12, 5,6-difluoro-1-(4-fluorobenzyl)-2-methyl-4-nitro-1H-benzo[d]imidazole] | 500 to 1000 |
| Cc1nc2c([N+](=O)[O-])c(F)c(F)cc2n1Cc1ccc(-n2cncn2)cc1 [Compound 2.2.13, 1-(4-(1H-1,2,4-triazol-1-yl)benzyl)-5,6-difluoro-2-methyl-4-nitro-1H-benzo[d]imidazole] | ≥ 1000 |
| Cc1nc2c([N+](=O)[O-])c(F)c(F)cc2n1C(C)c1ccccc1 (stereo not drawn) [Compound 2.2.14, 5,6-difluoro-2-methyl-4-nitro-1-(1-phenylethyl)-1H-benzo[d]imidazole] | ≥ 1000 |
| Cc1nc2c([N+](=O)[O-])c(F)c(F)cc2n1Cc1ccc(B(O)O)cc1 [Compound 2.2.15, (4-((5,6-difluoro-2-methyl-4-nitro-1H-benzo[d]imidazol-1-yl)methyl)phenyl)boronic acid] | 500 to 1000 |
| Cc1nc2c([N+](=O)[O-])c(Cl)c(Cl)cc2n1-c1ccccc1 [Compound 2.2.16, 5,6-dichloro-2-methyl-4-nitro-1-phenyl-1H-benzo[d]imidazole] | < 100 |
| Cc1nc2c([N+](=O)[O-])c(Cl)c(Cl)cc2n1S(=O)(=O)c1ccccc1 [Compound 2.2.17, 5,6-dichloro-2-methyl-4-nitro-1-(phenylsulfonyl)-1H-benzo[d]imidazole] | < 100 |
| Cc1nc2c([N+](=O)[O-])c(Cl)c(Cl)cc2n1C(=O)c1ccccc1 [Compound 2.2.18, (5,6-dichloro-2-methyl-4-nitro-1H-benzo[d]imidazol-1-yl)(phenyl)methanone] | 100 to 500 |
| Cc1nc2c([N+](=O)[O-])c(Cl)c(Cl)cc2n1Cc1ccccc1 [Compound 2.2.19, 1-benzyl-5,6-dichloro-2-methyl-4-nitro-1H-benzo[d]imidazole] | < 100 |

| Compound | IC50 [nM] |
| --- | --- |
| COc1ccc(Cn2c(C)nc3c([N+](=O)[O-])c(Cl)c(Cl)cc32)cc1 [Compound 2.2.20, 5,6-dichloro-1-(4-methoxybenzyl)-2-methyl-4-nitro-1H-benzo[d]imidazole] | < 100 |
| COc1cccc(Cn2c(C)nc3c([N+](=O)[O-])c(Cl)c(Cl)cc32)c1 [Compound 2.2.21, 5,6-dichloro-1-(3-methoxybenzyl)-2-methyl-4-nitro-1H-benzo[d]imidazole] | 100 to 500 |
| CC(=O)Oc1ccc(Cn2c(C)nc3c([N+](=O)[O-])c(Cl)c(Cl)cc32)cc1 [Compound 2.2.22, 4-((5,6-dichloro-2-methyl-4-nitro-1H-benzo[d]imidazol-1-yl)methyl)phenyl acetate] | < 100 |
| Cc1nc2c([N+](=O)[O-])c(Cl)c(Cl)cc2n1Cc1ccc(O)cc1 [Compound 2.2.25, 4-((5,6-dichloro-2-methyl-4-nitro-1H-benzo[d]imidazol-1-yl)methyl)phenol] | < 100 |
| Cc1ccc(Cn2c(C)nc3c([N+](=O)[O-])c(Cl)c(Cl)cc32)cc1 [Compound 2.2.26, 5,6-dichloro-2-methyl-1-(4-methylbenzyl)-4-nitro-1H-benzo[d]imidazole] | < 100 |
| Cc1nc2c([N+](=O)[O-])c(Cl)c(Cl)cc2n1Cc1ccc(C=O)cc1 [Compound 2.2.27, 4-((5,6-dichloro-2-methyl-4-nitro-1H-benzo[d]imidazol-1-yl)methyl)benzaldehyde] | 100 to 500 |
| Cc1nc2c([N+](=O)[O-])c(Cl)c(Cl)cc2n1Cc1ccc(C=NO)cc1 [Compound 2.2.28, 4-((5,6-dichloro-2-methyl-4-nitro-1H-benzo[d]imidazol-1-yl)methyl)benzaldehyde oxime] | < 100 |
| C=CC(=O)c1ccc(Cn2c(C)nc3c([N+](=O)[O-])c(Cl)c(Cl)cc32)cc1 [Compound 2.2.30, 1-(4-((5,6-dichloro-2-methyl-4-nitro-1H-benzo[d]imidazol-1-yl)methyl)phenyl)prop-2-en-1-one] | < 100 |
| C=CC(=O)Nc1ccc(Cn2c(C)nc3c([N+](=O)[O-])c(Cl)c(Cl)cc32)cc1 [Compound 2.2.32, N-(4-((5,6-dichloro-2-methyl-4-nitro-1H-benzo[d]imidazol-1-yl)methyl)phenyl)acrylamide] | < 100 |
| Cc1n[nH]c(C)c1CCn1c(C)nc2c([N+](=O)[O-])c(Cl)c(Cl)cc21 [Compound 2.2.33, 5,6-dichloro-1-(2-(3,5-dimethyl-1H-pyrazol-4-yl)ethyl)-2-methyl-4-nitro-1H-benzo[d]imidazole] | 100 to 500 |
| Cc1nc2c([N+](=O)[O-])c(Cl)c(Cl)cc2n1Cc1ccc(-n2cccn2)cc1 [Compound 2.2.34, 1-(4-(1H-pyrazol-1-yl)benzyl)-5,6-dichloro-2-methyl-4-nitro-1H-benzo[d]imidazole] | < 100 |
| Cc1nc2c([N+](=O)[O-])c(Cl)c(Cl)cc2n1Cc1ccc(-n2cncn2)cc1 [Compound 2.2.35, 1-(4-(1H-1,2,4-triazol-1-yl)benzyl)-5,6-dichloro-2-methyl-4-nitro-1H-benzo[d]imidazole] | 500 to 1000 |
| Cc1nc2c([N+](=O)[O-])c(Cl)c(Cl)cc2n1Cc1ccc(C(=O)O)cc1 [Compound 2.2.37, 4-((5,6-dichloro-2-methyl-4-nitro-1H-benzo[d]imidazol-1-yl)methyl)benzoic acid] | < 100 |
| COC(=O)c1ccc(Cn2c(C)nc3c([N+](=O)[O-])c(Cl)c(Cl)cc32)cc1 [Compound 2.2.38, methyl 4-((5,6-dichloro-2-methyl-4-nitro-1H-benzo[d]imidazol-1-yl)methyl)benzoate] | 100 to 500 |
| Cc1nc2c([N+](=O)[O-])c(Cl)c(Cl)cc2n1Cc1ccc(C(N)=O)cc1 [Compound 2.2.39, 4-((5,6-dichloro-2-methyl-4-nitro-1H-benzo[d]imidazol-1-yl)methyl)benzamide] | < 100 |
| Cc1nc2c([N+](=O)[O-])c(Cl)c(Cl)cc2n1Cc1ccc(C#N)cc1 [Compound 2.2.40, 4-((5,6-dichloro-2-methyl-4-nitro-1H-benzo[d]imidazol-1-yl)methyl)benzonitrile] | 100 to 500 |
| Cc1nc2c([N+](=O)[O-])c(Cl)c(Cl)cc2n1Cc1ccc(S(C)(=O)=O)cc1 [Compound 2.2.41, 5,6-dichloro-2-methyl-1-(4-(methylsulfonyl)benzyl)-4-nitro-1H-benzo[d]imidazole] | 100 to 500 |
| Cc1nc(Cn2c(C)nc3c([N+](=O)[O-])c(Cl)c(Cl)cc32)cs1 [Compound 2.2.42, 4-((5,6-dichloro-2-methyl-4-nitro-1H-benzo[d]imidazol-1-yl)methyl)-2-methylthiazole] | 100 to 500 |

Reference: patent US20170305893A1 (Thomas Helledays Stiftelse for Medicinsk Forskning, priority 2014, published 2017)
